For data set [1], the system named is Lactobacillus fermentum (ATCC 14931). The data set is described as follows: Glucose Uptake Index (GUI) of Lactobacillus fermentum culture with 5% v/v ionic liquid. Type of data set: cell-based. Particulars: MRS medium, 16 hours, 30° C., paired control GUI 99.8, 26.5 or 94.6.
For data set [2], the system named is Lactobacillus zeae (ATCC 15820). The data set is described as follows: Glucose Uptake Index (GUI) of Lactobacillus zeae culture with 5% v/v ionic liquid.
Method: This media was made per bottle instructions using sterilized water, and was then again filter sterilized before use. The test tubes were incubated at 30° C. at 175 rpm in an Inova Incubator (Karlsbad, Sweden). After 24 hours, the test tubes were removed and stored at 4° C.
A portion (50 μL) of each stock culture prepared as above was inoculated into separate 15 mL sterile polypropylene culture tubes containing fresh MRS medium (3 mL). These tubes were incubated for four hours at 30° C. at 175 rpm. After four hours, one of these culture tubes was inoculated with 150 μL (5% v/v) of each of the ionic liquids as listed in Table 1 below. […] Each tube that was inoculated with an ionic liquid was also paired with a tube that received no ionic liquid and was used as a control.
All culture tubes were then incubated again under the same conditions for another 16 hours. After 16 hours, the culture tubes were stored at −80° C. Analytical samples were taken from each culture tube by thawing the samples and spinning them at 28,000 rpm and 20° C. for ten minutes in a Sorvall Instruments RC3C (Newtown Conn.) centrifuge. One milliliter of supernatant was removed from each tube and was subjected to high performance liquid chromatography (HPLC) analysis using an Agilent (Palo Alto Calif.) HPLC 1100 with a BioRad Aminex 87-H using 0.008 N sulfuric acid with both diode array and refractive index detection, and an Agilent HPLC 1100 with a Shodex OH-pak column using 0.01 N sulfuric acid. Data analysis was performed using the Agilent Chemstation software and Microsoft Excel.
The glucose uptake index was calculated by taking the total glucose consumed in a fermentation sample, whether or not the sample contained an ionic liquid, and dividing it by the total initial glucose present in the broth at the start of fermentation.
The nature of data set [3]: Extraction of isobutanol from an aqueous solution by ionic liquid, HPLC. Type of data set: physicochemical. Conditions: concentration in aqueous solution after overnight equilibration with 5 vol % ionic liquid; control 416 mM.
Method: (§1) Ethanol and isobutanol concentration in the solution was measured using HPLC as described above following thorough mixing and overnight equilibration of the contents of the vial.
Data set [4] in a line: Extraction of ethanol from an aqueous solution by ionic liquid, HPLC. Type of data set: physicochemical. Conditions: concentration in aqueous solution after overnight equilibration with 5 vol % ionic liquid; control 684 mM.
Method: as §1

“And” between values parts separate entries of the source, which are not always exact repeats. Equal values may be shown once.

Regarding “tetradecyl(tri-n-hexyl)phosphonium 1,1,2-trifluoro-2-(perfluoroethoxy)ethanesulfonate [[6,6,6,14-P] [TPES]]”, the “GUI of Sample (Glucose Utilization Index in the presence of 5% (v/v) of the ionic liquid phase)” value was 92.8 in data set [1] and 62.8 in data set [2].
Turning to `CCCCCCn1cc[n+](C)c1.FC(F)(F)C(F)(F)[P-](F)(F)(F)(C(F)(F)C(F)(F)F)C(F)(F)C(F)(F)F` [[HMIM] [FAP], 1-hexyl-3-methylimidazolium tris(pentafluoroethyl)trifluorophosphate], the “GUI of Sample (Glucose Utilization Index in the presence of 5% (v/v) of the ionic liquid phase)” value in data set [1] is given as 84.7. For the same compound, the Isobutanol in data set [3] is listed as 404 mM. Besides, the Ethanol in data set [4] was determined as 680 mM.
“1-ethyl-3-methylimidazolium bis(trifluoromethylsulfonyl)imide [[EMIM] [Tf2N]]”: the “GUI of Sample (Glucose Utilization Index in the presence of 5% (v/v) of the ionic liquid phase)” value in data set [1] is on record as 54.5; in data set [2], 51.2. The compound also had an Isobutanol in data set [3] of 389 mM. Also, in data set [4], the Ethanol stood at 670 mM.
As to “1-butyl-3-methylimidazolium 1,1,2-trifluoro-2-(perfluoroethoxy)ethanesulfonate [[BMIM] [TPES]]”, the “GUI of Sample (Glucose Utilization Index in the presence of 5% (v/v) of the ionic liquid phase)” value in data set [1] was determined as 7.21.
Take `CCCCn1cc[n+](C)c1.F[B-](F)(F)F` [[BMIM] [BF4], 1-butyl-3-methylimidazolium tetrafluoroborate]: in data set [1], the “GUI of Sample (Glucose Utilization Index in the presence of 5% (v/v) of the ionic liquid phase)” value was 9.74.
Regarding “1-hexyl-3-methylimidazolium bis(trifluoromethylsulfonyl)imide [[HMIM] [Tf2N]]”, the entries for the “GUI of Sample (Glucose Utilization Index in the presence of 5% (v/v) of the ionic liquid phase)” value in data set [1] and in data set [2] were 19.5 and 66.2, respectively. This compound gave an Isobutanol in data set [3] of 388 mM. In addition, the Ethanol in data set [4] is recorded as 678 mM.
With “1-butyl-3-methylimidazolium 2-(1,2,2,2-tetrafluoroethoxy)-1,1,2,2-tetrafluoroethanesulfonate [[BMIM] [FS]]”, in data set [1], the “GUI of Sample (Glucose Utilization Index in the presence of 5% (v/v) of the ionic liquid phase)” value is 24.0.
With “1-butyl-3-methylpyrrolidinium bis(trifluoromethylsulfonyl)imide [[BMP] [Tf2N]]”, the “GUI of Sample (Glucose Utilization Index in the presence of 5% (v/v) of the ionic liquid phase)” value in data set [1] is 0.96; in data set [2] it was 49.8. The same compound displayed an Isobutanol in data set [3] of 391 mM. Besides, in data set [4], the Ethanol was determined as 676 mM.
In the case of “1-butyl-3-methylimidazolium 1,1,2,3,3,3-hexafluoropropanesulfonate [[BMIM] [HFPS]]”, in data set [1], the “GUI of Sample (Glucose Utilization Index in the presence of 5% (v/v) of the ionic liquid phase)” value is 8.0 and 11.5.
The same measure, in the same setting: as for “1-butyl-3-methylimidazolium 1,1,2-trifluoro-2-(trifluoromethoxy)ethanesulfonate [[BMIM] [TTES]]”, the figure is 16.2.
As for “1-ethyl-3-methylimidazolium bis(pentafluoroethylsulfonyl)imide [[EMIM] [BEI]]”, the results for the “GUI of Sample (Glucose Utilization Index in the presence of 5% (v/v) of the ionic liquid phase)” value in data set [1] and in data set [2] were 25.5 and 36.0, respectively.
With “3-methyl-1-propylpyridinium bis(trifluoromethylsulfonyl)imide [[PMPy] [Tf2N]]”, the “GUI of Sample (Glucose Utilization Index in the presence of 5% (v/v) of the ionic liquid phase)” value worked out at 26.1 in data set [1] and 63.5 in data set [2].
Take `CCCCn1cc[n+](C)c1.F[P-](F)(F)(F)(F)F` [[BMIM] [PF6], 1-butyl-3-methylimidazolium hexafluorophosphate]: the “GUI of Sample (Glucose Utilization Index in the presence of 5% (v/v) of the ionic liquid phase)” value in data set [1] is 88.3.
As for “1-butyl-3-methylimidazolium bis(trifluoromethylsulfonyl)imide [[BMIM] [Tf2N]]”, the “GUI of Sample (Glucose Utilization Index in the presence of 5% (v/v) of the ionic liquid phase)” value in data set [1] is recorded as 26.8.

These data come from patent US20100139154A1, “PROCESS FOR FERMENTIVE PREPARATION OF ALCOHOLS AND RECOVERY OF PRODUCT” (E.I. DU PONT DE NEMOURS AND COMPANY, priority 2008, published 2010).
